Marks after values point to notes of the source that are not given here.
Columns and labels:
[1] = test system: pERK in MiaPaCa2 tumors; experiment: Tumor pERK inhibition and PK-PD in MiaPaCa2 xenograft; set-up: species or system mice; settings: Mus musculus, MIA PaCa-2, 24 h, 25 mg/kg oral, read-out: Ex vivo % pERK inhibition at 24 h
[2] = test system: Colo-205 human colon xenograft; experiment: Antitumor activity against human colon xenograft Colo-205
Experimental: A study was also carried out to explore the potential of an intermittent dosing strategy.

[3] = test system: HT-29 colon xenograft; experiment: Antitumor activity in HT-29 tumor model; format: in vivo, mice; settings: oral 25 mg/kg once a day for 14 days
[4] = Metabolites of [14C] Compound 1 in cryopreserved hepatocytes; format: in vitro ADME, monkey; settings: [C-14] Compound 1 10 μM, 180 mins
Experimental: Incubations were performed in hepatocytes for 3 hours and liver microsomes for 1.5 hours and were stopped with the addition of methanol. HPLC, in conjuction with ionspray 3D iontrap mass spectrometry, and simultaneous radioactive monitoring were used to detect and identify the resulting metabolites.
Metabolite identification of radiolabeled Compound 1 was performed after incubation with rat, dog, monkey and human cryopreserved hepatocytes and liver microsomes. […] Besides glucuronidation, metabolites derived from other clearance pathways are also observed. For instance, M 15 (acid cleavage product) accounts for 11% of the total radioactivity in the human chromatogram.

[5] = test system: ERK phosphorylation in HCT-116 colon cells; experiment: cells; settings: Homo sapiens, HCT-116, 1 h, read-out: Cellular IC50
[6] = test system: ERK phosphorylation in MDCK cells; experiment: cells; settings: Canis lupus familiaris, 1 h, read-out: Cellular IC50
[7] = test system: advanced cancer (breast, colon, NSCLC, melanoma); experiment: Phase 1/2 clinical study: tumor response (RECIST); settings: for Clinical Response: individual patient
[8] = Colo-205, D19, 22, 25, 28, 31, 34, 37, 40, 43, 46, 18.8 mg/kg
[9] = Colo-205, D19, 22, 25, 28, 31, 34, 37, 40, 43, 46, 37.5 mg/kg
[10] = Colo-205, D19, 22, 25, 28, 31, 34, 37, 40, 43, 46, 75 mg/kg
[11] = Colo-205, D19, 22, 25, 28, 31, 34, 37, 40, 43, 46, 150 mg/kg
[12] = Colo-205, D19, 26, 33, 40, 47, 37.5 mg/kg
[13] = Colo-205, D19, 26, 33, 40, 47, 75 mg/kg
[14] = Colo-205, D19, 26, 33, 40, 47, 150 mg/kg
[15] = Colo-205, D19, 26, 33, 40, 47, 300 mg/kg (toxic)
[16] = Colo-205, D19-23, 26-30, 33-37, 40-44, 3.1 mg/kg
[17] = Colo-205, D19-23, 26-30, 33-37, 40-44, 6.3 mg/kg
[18] = Colo-205, D19-23, 26-30, 33-37, 40-44, 12.5 mg/kg
[19] = Colo-205, D19-23, 26-30, 33-37, 40-44, 25 mg/kg
[20] = Colo-205 colon, oral 25 mg/kg once a day for 14 days

O=C(NOC[C@H](O)CO)c1ccc(F)c(F)c1Nc1ccc(I)cc1F [Compound 1, N-[(R)-2,3-dihydroxy-propoxy]-3,4-difluoro-2-(2-fluoro-4-iodo-phenylamino)-benzamide]
inhibition at 25 mg/kg [1]: 93%
CR (complete response) [2, 8]: 0/6
Net Log10 kill [2, 8]: 0.1
Nonspecific Deaths [2, 8]: 0/6
PR (partial response) [2, 8]: 0/6
T − C [2, 8]: 29.5 days
Tumor Free [2, 8]: 0/6
CR (complete response) [2, 9]: 0/6
Net Log10 kill [2, 9]: 0.6
Nonspecific Deaths [2, 9]: 0/6
PR (partial response) [2, 9]: 0/6
T − C [2, 9]: 37.7 days
Tumor Free [2, 9]: 0/6
CR (complete response) [2, 10]: 1/6
Net Log10 kill [2, 10]: 0.8
Nonspecific Deaths [2, 10]: 0/6
PR (partial response) [2, 10]: 2/6
T − C [2, 10]: 41.5 days
Tumor Free [2, 10]: 0/6
CR (complete response) [2, 11]: 2/5
Net Log10 kill [2, 11]: 0.7
Nonspecific Deaths [2, 11]: 1/6^h
PR (partial response) [2, 11]: 3/5
T − C [2, 11]: 39.9 days
Tumor Free [2, 11]: 0/5
CR (complete response) [2, 12]: 0/6
Net Log10 kill [2, 12]: −0.8
Nonspecific Deaths [2, 12]: 0/6
PR (partial response) [2, 12]: 0/6
T − C [2, 12]: 13.1 days
Tumor Free [2, 12]: 0/6
CR (complete response) [2, 13]: 0/6
Net Log10 kill [2, 13]: −0.6
Nonspecific Deaths [2, 13]: 0/6
PR (partial response) [2, 13]: 0/6
T − C [2, 13]: 17.0 days
Tumor Free [2, 13]: 0/6
CR (complete response) [2, 14]: 1/6
Net Log10 kill [2, 14]: 0.4
Nonspecific Deaths [2, 14]: 0/6
PR (partial response) [2, 14]: 1/6
T − C [2, 14]: 35.4 days
Tumor Free [2, 14]: 0/6
Net Log10 kill ([2]; Colo-205, D19, 26, 33, 40, 47, 300 mg/kg): Toxic
CR (complete response) [2, 15]: 2/3
Nonspecific Deaths [2, 15]: 3/6^i Toxic
PR (partial response) [2, 15]: 1/3 Toxic
T − C [2, 15]: 60.3 Toxic days
Tumor Free [2, 15]: 1/3 Toxic
CR (complete response) [2, 16]: 0/6
Net Log10 kill [2, 16]: 0.7
Nonspecific Deaths [2, 16]: 0/6
PR (partial response) [2, 16]: 2/6
T − C [2, 16]: 37.8 days
Tumor Free [2, 16]: 0/6
CR (complete response) [2, 17]: 1/6
Net Log10 kill [2, 17]: 1.1
Nonspecific Deaths [2, 17]: 0/6
PR (partial response) [2, 17]: 4/6
T − C [2, 17]: 45.1 days
Tumor Free [2, 17]: 0/6
CR (complete response) [2, 18]: 1/6
Net Log10 kill [2, 18]: 1.1
Nonspecific Deaths [2, 18]: 0/6
PR (partial response) [2, 18]: 4/6
T − C [2, 18]: 45.9 days
Tumor Free [2, 18]: 0/6
CR (complete response) [2, 19]: 6/6
Net Log10 kill [2, 19]: 1.8
Nonspecific Deaths [2, 19]: 0/6
PR (partial response) [2, 19]: 0/6
T − C [2, 19]: 59.3 days
Tumor Free [2, 19]: 2/6
CR (complete response) ([2]; Colo-205, D19-46, 3.1 mg/kg): 0/6
Net Log10 kill ([2]; Colo-205, D19-46, 3.1 mg/kg): 1.0
Nonspecific Deaths ([2]; Colo-205, D19-46, 3.1 mg/kg): 0/6
PR (partial response) ([2]; Colo-205, D19-46, 3.1 mg/kg): 5/6
T − C ([2]; Colo-205, D19-46, 3.1 mg/kg): 45.5 days
Tumor Free ([2]; Colo-205, D19-46, 3.1 mg/kg): 0/6
CR (complete response) ([2]; Colo-205, D19-46, 6.3 mg/kg): 2/6
Net Log10 kill ([2]; Colo-205, D19-46, 6.3 mg/kg): 1.1
Nonspecific Deaths ([2]; Colo-205, D19-46, 6.3 mg/kg): 0/6
PR (partial response) ([2]; Colo-205, D19-46, 6.3 mg/kg): 4/6
T − C ([2]; Colo-205, D19-46, 6.3 mg/kg): 46.7 days
Tumor Free ([2]; Colo-205, D19-46, 6.3 mg/kg): 0/6
CR (complete response) ([2]; Colo-205, D19-46, 12.5 mg/kg): 6/6
Net Log10 kill ([2]; Colo-205, D19-46, 12.5 mg/kg): 2.3
Nonspecific Deaths ([2]; Colo-205, D19-46, 12.5 mg/kg): 0/6
PR (partial response) ([2]; Colo-205, D19-46, 12.5 mg/kg): 0/6
T − C ([2]; Colo-205, D19-46, 12.5 mg/kg): 70.1 days
Tumor Free ([2]; Colo-205, D19-46, 12.5 mg/kg): 0/6
CR (complete response) ([2]; Colo-205, D19-46, 25 mg/kg): 5/6
Net Log10 kill ([2]; Colo-205, D19-46, 25 mg/kg): 2.0
Nonspecific Deaths ([2]; Colo-205, D19-46, 25 mg/kg): 0/6
PR (partial response) ([2]; Colo-205, D19-46, 25 mg/kg): 1/6
T − C ([2]; Colo-205, D19-46, 25 mg/kg): 63.9 days
Tumor Free ([2]; Colo-205, D19-46, 25 mg/kg): 1/6
CR (complete responder) [2, 20]: 4/10
PR (partial responder) [2, 20]: 5/10
T − C [2, 20]: 10.8 days
Tumor Free [2, 20]: 3/10
CR (complete responder) [3]: 0/10
PR (partial responder) [3]: 0/10
Tumor Free [3]: 0/10
% ROI Monkey [4]: 23.46%
IC50 [5]: 0.28 nM
IC50 [6]: 0.31 nM
Clinical Response ([7]; 2 mg BID, colon, cell wraps: stable disease): stable
Clinical Response ([7]; 2 mg BID, melanoma, cell wraps: stable disease): stable
Clinical Response ([7]; 4 mg BID, lung, cell wraps: stable disease): stable
Clinical Response ([7]; 4 mg BID, melanoma, cell wraps: stable disease): stable
Clinical Response ([7]; 15 mg BID, breast, cell wraps: stable disease): stable
Clinical Response ([7]; 20 mg BID continuous, melanoma, cell wraps: stable disease): stable
Clinical Response ([7]; 20 mg BID, melanoma, cell wraps: partial response): partial
Clinical Response ([7]; 30 mg BID, melanoma, cell wraps: stable disease): stable
Patients with stable disease ([7]; of 42 patients treated): 10
Partial responses ([7]; of 42 patients treated, melanoma): 2

From US20060154990A1, “Use of MEK inhibitors in treating abnormal cell growth” (AGOURON PHARMACEUTICALS, INC., priority 2004, published 2006)
